Like-named read-outs stand apart in the source and are kept apart here.
Experiments:
[1] = target: β1 receptors, guinea pig right atria (Cavia porcellus, UniProt H0W3H1); assay: cell-based
Protocol: Each tissue was suspended between a fixed glass rod and a Statham Universal Transducer connected to a Beckman recorder. Atria were allowed to beat spontaneously under a loading tension of approximately 0.5 gm. Intrinsic depressant or stimulant activity was determined for each compound by progressively increasing concentrations in the tissue baths at 60-minute intervals. Tissues were not washed between increments. The maximum concentration showing little or no cardiodepressant activity was chosen for blockade experiments. Changes in rate in response to isoproterenol, a standard β-receptor agonist, were measured in the absence and presence of test compounds. Spiral strips of guinea pig trachea were suspended under 5 gm resting tension and incubated with phentolamine, tropolone and cocaine. Active tension was generated by addition of carbachol (3.0×10^-7 M) and decreases in tension in response to isoproterenol were quantitated. Cumulative concentration-response curves were produced with isoproterenol both before and after 60-minute incubation of test compounds with atria and trachea. […] The blocking potency of test compounds was estimated by computing pA2 values (-log KB) by the method of Furchgott, the Pharmacological Differentiation of Adrenergic Receptors, Ann. […] The degree of cardioselectivity was estimated from the ratio, KB trachea/KB atria (10^(pA2 atria-pA2 trachea)). A ratio greater than one indicates cardioselectivity. Test drugs were dissolved in distilled water and added to the bath (30 ml) in a volume of 10 or 100 μl.

[2] = target: β2 receptors, guinea pig trachea (Cavia porcellus, UniProt Q8K4Z4); assay: cell-based
β2 receptors, guinea pig trachea, sequence (Q8K4Z4 whole entry): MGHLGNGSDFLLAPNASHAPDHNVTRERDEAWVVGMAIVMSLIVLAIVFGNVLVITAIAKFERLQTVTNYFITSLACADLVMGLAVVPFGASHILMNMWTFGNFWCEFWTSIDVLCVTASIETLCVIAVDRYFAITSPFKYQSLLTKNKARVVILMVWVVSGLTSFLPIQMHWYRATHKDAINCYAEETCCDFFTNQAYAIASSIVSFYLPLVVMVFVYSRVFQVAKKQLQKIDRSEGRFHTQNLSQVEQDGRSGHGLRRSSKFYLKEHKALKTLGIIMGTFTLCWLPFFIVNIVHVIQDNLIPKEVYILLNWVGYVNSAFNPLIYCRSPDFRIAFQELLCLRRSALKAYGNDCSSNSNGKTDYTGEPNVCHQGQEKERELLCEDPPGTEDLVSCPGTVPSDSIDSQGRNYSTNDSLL
Protocol: Each tissue was suspended between a fixed glass rod and a Statham Universal Transducer connected to a Beckman recorder. Atria were allowed to beat spontaneously under a loading tension of approximately 0.5 gm. Intrinsic depressant or stimulant activity was determined for each compound by progressively increasing concentrations in the tissue baths at 60-minute intervals. Tissues were not washed between increments. […] Changes in rate in response to isoproterenol, a standard β-receptor agonist, were measured in the absence and presence of test compounds. Spiral strips of guinea pig trachea were suspended under 5 gm resting tension and incubated with phentolamine, tropolone and cocaine. Active tension was generated by addition of carbachol (3.0×10^-7 M) and decreases in tension in response to isoproterenol were quantitated. Cumulative concentration-response curves were produced with isoproterenol both before and after 60-minute incubation of test compounds with atria and trachea. […] The blocking potency of test compounds was estimated by computing pA2 values (-log KB) by the method of Furchgott, the Pharmacological Differentiation of Adrenergic Receptors, Ann. […] A ratio greater than one indicates cardioselectivity. Test drugs were dissolved in distilled water and added to the bath (30 ml) in a volume of 10 or 100 μl.

[3] = test system: heart rate response to isoproterenol; assay: Duration and potency of beta-blocking action in vivo, 3-hour infusion in anesthetized dogs, isoproterenol challenge; parameters: species or system dog; conditions: Table IV; after infusion of drug; mean ± SEM
Protocol: The duration of β-blockade was determined In vivo using pentobarbital-anesthetized dogs instrumented for measurement of heart rate using a Beckman cardiotachometer triggered electronically by a phasic aortic blood pressure signal. Both vagus nerves were served in the cervical region and the animals were mechanically ventilated. The experimental design used employed a 3-hour infusion of test compound. Bolus doses of isoproterenol (0.5 μg/kg) were used to assess the degree of β-blockade and recovery from β-blockade after […] of the infusion. The doses were spaced at 10-minute intervals and were given before, during and following the infusion of test compounds. The infusion rate was adjusted so that at the end of the 3-hour infusion period the degree of isoproterenol inhibition averaged about 50% of control. Following termination of blocker infusion, percent recovery from β-blockade was computed and the time associated with 80% recovery estimated.
^c Time in minutes for 50% recovery from 50% blockade levels after 3
Infusions of drug. Number of experiments is equal to or greater than thre
for each compound unless noted otherwise. Tabulated data are mean values
^c The betablocking activities were evaluated Invivo in a canine
model. The betablocker was infused in the animal for 3 hours with the dos
adjusted to give approximately 50%. blockage of the Isoproternolinduced
tachycardia. The infusion was then terminated and the time required for
80% recovery of blockade was recorded as duration of action of the
compound. The amount of drug infused during the 3 hours was averaged and
expressed as potency in ug/kg/min.

[4] = test system: β-adrenergic receptors, guinea pig trachea vs right atria; assay: Cardioselectivity, KB trachea/KB atria; assay type: cell-based; conditions: 10^(pA2 atria-pA2 trachea); ratio greater than one indicates cardioselectivity
Protocol: Each tissue was suspended between a fixed glass rod and a Statham Universal Transducer connected to a Beckman recorder. Atria were allowed to beat spontaneously under a loading tension of approximately 0.5 gm. Intrinsic depressant or stimulant activity was determined for each compound by progressively increasing concentrations in the tissue baths at 60-minute intervals. Tissues were not washed between increments. The maximum concentration showing little or no cardiodepressant activity was chosen for blockade experiments. Changes in rate in response to isoproterenol, a standard β-receptor agonist, were measured in the absence and presence of test compounds. Spiral strips of guinea pig trachea were suspended under 5 gm resting tension and incubated with phentolamine, tropolone and cocaine. Active tension was generated by addition of carbachol (3.0×10^-7 M) and decreases in tension in response to isoproterenol were quantitated. Cumulative concentration-response curves were produced with isoproterenol both before and after 60-minute incubation of test compounds with atria and trachea. […] The degree of cardioselectivity was estimated from the ratio, KB trachea/KB atria (10^(pA2 atria-pA2 trachea)). A ratio greater than one indicates cardioselectivity. Test drugs were dissolved in distilled water and added to the bath (30 ml) in a volume of 10 or 100 μl.

[5] = Table IV, mean, n ≥ 2, range ≤ ± 0.2 units, read-out: pA2 Atria (converted)
[6] = Table IV, mean, n ≥ 2, range ≤ ± 0.2 units, read-out: pA2 Trachea (converted)
[7] = Table VI, read-out: pA2 Atria (converted)
[8] = Table V, guinea pig right atria (B1), read-out: In Vitro pA2 Atria (converted)
[9] = Table IV, mean, n ≥ 2, range ≤ ± 0.2 units

β1 receptors, guinea pig right atria, sequence (H0W3H1 1-470): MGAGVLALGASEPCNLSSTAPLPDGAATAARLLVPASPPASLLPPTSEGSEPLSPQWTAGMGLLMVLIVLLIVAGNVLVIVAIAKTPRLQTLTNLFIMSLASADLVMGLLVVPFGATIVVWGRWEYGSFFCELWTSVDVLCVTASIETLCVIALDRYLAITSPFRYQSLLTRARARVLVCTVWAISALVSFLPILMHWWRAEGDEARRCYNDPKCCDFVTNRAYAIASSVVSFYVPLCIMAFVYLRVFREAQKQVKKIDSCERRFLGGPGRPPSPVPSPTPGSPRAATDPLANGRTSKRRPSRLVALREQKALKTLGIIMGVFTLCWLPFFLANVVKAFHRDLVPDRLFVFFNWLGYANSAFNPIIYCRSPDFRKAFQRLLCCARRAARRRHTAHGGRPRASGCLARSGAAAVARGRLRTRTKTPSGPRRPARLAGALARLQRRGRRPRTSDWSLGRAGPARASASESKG

Row | Kb [1, 5] | Kb [2, 6] | Compound | other results
1 | 31.6 nM | 1260 nM | CCOC(=O)CCc1ccc(OCC(O)CNCCNC(=O)Cc2ccccc2)cc1 (centres unmarked) [No. 12 (Table IV)] | Duration, time for 50% recovery from 50% blockade levels [3]: 6 ± 4 min
2 | 1000 nM | 6310 nM | CCOC(=O)CCc1ccc(OCC(O)CNCCNS(=O)(=O)c2ccc(C)cc2)cc1 (centres unmarked) [No. 17 (Table IV)] | 
3 |  | 398 nM | CCOC(=O)CCc1ccc(OCC(O)CNC(C)(C)CNC(=O)C2CCCCC2)cc1 (centres unmarked) [No. 11 (Table IV)] | 
4 | 794 nM | 200 nM | CCOC(=O)CCc1ccc(OCC(O)CNC(C)(C)CNC(=O)OCC)cc1 (centres unmarked) [No. 14 (Table IV)] | 

The next lines start with the molecule.

Row | Compound | Kb [1, 5] | Kb [2, 6] | other results
5 | CCOC(=O)CCc1ccc(OCC(O)CNCCNC(=O)C(C)C)cc1 (centres unmarked) [No. 10 (Table IV)] | 794 nM | 398 nM | Duration, time for 50% recovery from 50% blockade levels [3]: 6 ± 3 min
6 | CCOC(=O)CCc1nsnc1OCC(O)CNCCNC(=O)Cc1ccccc1 (centres unmarked) [No. 6 (Table VI)] |  |  | Kb [1, 7]: 79.4 nM
7 | CCOC(=O)CCc1nsnc1OCC(O)CNC(C)(C)CNC(=O)C(C)C (centres unmarked) [No. 2 (Table V)] |  |  | Kb [1, 8]: 6.31 nM
8 | CCOC(=O)CCc1nsnc1OCC(O)CNCCNC(=O)C(C)C (centres unmarked) [No. 1 (Table V)] |  |  | Kb [1, 8]: 100 nM
9 | CCOC(=O)c1ccccc1OCC(O)CNCCNS(=O)(=O)N(C)C (centres unmarked) [Example 4] | 39.8 nM | 20 nM | 
10 | COC(=O)c1ccccc1OCC(O)CNCCNS(=O)(=O)c1ccc(C)cc1.O=C(O)C(=O)O (centres unmarked) [Example VII, Methyl 2-[2-Hydroxy-3-[N-[2-[N-(4-methylphenylsulfonyl)amino]ethyl]amino]propoxy]benzoate Oxalate] |  |  | Kb ([1]; Table I, guinea pig right atria, vs isoproterenol, -log KB, read-out: PA2 Rt. Atria (converted)): 158 nM; Cardioselectivity KB (Trachea)/KB (Atria) [4]: 2; Kb ([2]; Table I, guinea pig trachea, vs isoproterenol, -log KB, read-out: PA2 Trachea (converted)): 79.4 nM
11 | CCOC(=O)CCc1ccc(OCC(O)CNCCNS(=O)(=O)N(C)C)cc1 (centres unmarked) [No. 16 (Table IV)] |  |  | pA2 Atria [1, 9]: 5.8; pA2 Trachea [2, 9]: 5.7
12 | CCOC(=O)CCc1ccccc1OCC(O)CNCCNC(=O)C(C)C (centres unmarked) [Example 6] | 63.1 nM | 20 nM | 
13 | CCOC(=O)c1ccccc1OCC(O)CNCCNS(=O)(=O)c1ccc(C)cc1 (centres unmarked) [Example 5] | 158 nM | 25.1 nM | 
14 | CCOC(=O)c1ccccc1OCC(O)CNCCNC(=O)C(C)C (centres unmarked) [Example 1] | 3.16 nM | 20 nM | 
15 | CCOC(=O)CCc1nsnc1OCC(O)CNC(C)(C)CNC(=O)OCC (centres unmarked) [No. 1 (Table VI)] |  |  | Kb [1, 7]: 63.1 nM
16 | CCOC(=O)CCc1nsnc1OCC(O)CNC(C)CNC(C)=O (centres unmarked) [No. 4 (Table VI)] |  |  | Kb [1, 7]: 100 nM

— US4906661A, “Esters of aryloxypropanolamine derivatives” (E. I. Du Pont de Nemours and Company, priority 1989, dated 1990)
